Data taken from patent US20160060285A1, “Aminoglycosides, Methods of Synthesis, and Associated Applications” (UTAH STATE UNIVERSITY, priority 2010, published 2016).
In brackets after ≈: the same amount, converted by molar mass. Where two headings read alike, the source gives them in different places.

Columns and labels:
Assay type in all cases: cell-based
[1] = system: Staphylococcus aureus ATCC25923; test: Bacterial growth inhibition (MIC) test, microtiter plate, CLSI protocol; conditions: S. aureus 25923, 37° C., 24 hours
[2] = system: Fusarium graminearum B4-5A; test: microbe, parasite or virus in culture
[3] = system: Escherichia coli ATCC 25922; test: Bacterial growth inhibition (MIC) test, microtiter plate, CLSI protocol; conditions: E. coli 25922, Luria-Bertani medium, 37° C., 24 hours
[4] = system: Candida albicans ATCC64124 (azole-resistant); test: microbe, parasite or virus in culture; conditions: ATCC64124, 48 h
[5] = system: Candida albicans ATCC MYA-2876 (azole sensitive); test: Fungal MIC and MFC, microbroth dilution assay (M27-A3); conditions: C. albicans MYA2876 (azole sensitive), RPMI 1640, 35° C., 48 hours
[6] = system: azole-resistant Candida albicans ATCC 64124; test: Antifungal synergism by checkerboard analysis, K-compound and azole combinations; conditions: for MIC alone: K408 checkerboard table; for MIC alone / MIC: compound alone; for MIC K408 with azole: MIC of K408 when combined with the labelled azole; for MIC with K408: MIC of the labelled azole when combined with K408; for MIC with K4608: MIC of the labelled azole when combined with K4608; for FIC Index (K408 with azole): combination of K408 with the labelled azole; for FIC Index (K408 with azole) / FIC Index (K4608 with azole): synergistic if ≦0.5, indifferent if >0.5-4, antagonistic if >4; for FIC Index (K4608 with azole): combination of K4608 with the labelled azole; for MIC: Candida albicans
[7] = F. graminearum B4-5A, RPMI 1640, 35° C., 48 hour
[8] = first of two separate experiments
[9] = second of two separate experiments
[10] = ATCC64124, K408 checkerboard table, first of two separate experiments
[11] = ATCC64124, K408 checkerboard table, second of two separate experiments
[12] = ATCC64124, K4608 checkerboard table

Structure (SMILES) | MIC [1] | MIC [2, 7] | MIC [3] | MIC with K408 [6, 8] | MIC with K408 [6, 9] | MIC with K4608 ([6]; one experiment) | FIC Index (K408 with azole) [6, 8] | FIC Index (K408 with azole) [6, 9] | FIC Index (K4608 with azole) ([6]; one experiment) | MIC [6, 10] | MIC [6, 11] | other results
CCCCCCCOCC1OC(OC2C(N)CC(N)C(OC3OC(CN)C(O)C(O)C3O)C2O)C(O)C(N)C1OCCCCCCC (stereo not drawn) [Compound K4607] | 8-125 mg per L | 15.6 mg per L | 125 mg per L | – | – | – | – | – | – | – | – | –
CCCCCCCCCOCC1OC(OC2C(N)CC(N)C(OC3OC(CN)C(O)C(O)C3O)C2O)C(O)C(N)C1OCCCCCCCCC (stereo not drawn) [Compound K4609] | 8 mg per L | 125 mg per L | 16 mg per L | – | – | – | – | – | – | – | – | –
CCCCCCCCCCOCC1OC(OC2C(N)CC(N)C(OC3OC(CN)C(O)C(O)C3O)C2O)C(O)C(N)C1OCCCCCCCCCC (stereo not drawn) [Compound K4610] | 16 mg per L | >500 mg per L | 125 mg per L | – | – | – | – | – | – | – | – | –
CCCCCCCCCCCCOCC1OC(OC2C(N)CC(N)C(OC3OC(CN)C(O)C(O)C3O)C2O)C(O)C(N)C1OCCCCCCCCCCCC (stereo not drawn) [Compound K4612] | 64 mg per L | >500 mg per L | >250 mg per L | – | – | – | – | – | – | – | – | –
CCCCCCCCCCCCCCOCC1OC(OC2C(N)CC(N)C(OC3OC(CN)C(O)C(O)C3O)C2O)C(O)C(N)C1OCCCCCCCCCCCCCC (stereo not drawn) [Compound K4614] | >250 mg per L | >500 mg per L | >250 mg per L | – | – | – | – | – | – | – | – | –
NC[C@H]1O[C@H](O[C@H]2[C@H](O)[C@@H](O[C@H]3O[C@H](CO)[C@@H](O)[C@H](N)[C@H]3O)[C@H](N)C[C@@H]2N)[C@H](O)[C@@H](O)[C@@H]1O [Kanamycin, reference compound] | – | – | – | – | – | – | – | – | – | – | – | MIC [4]: > 500 µg/mL; MIC ([1]; Staphylococcus aureus, ATCC25923, read-out: MIC): 0.5 to 1 µg/mL (≈ 1.03 to 2.06 µM); MIC [5]: 250 to 500 µg/mL (≈ 516 to 1030 µM); MIC ([2]; Fusarium graminearum, B45A, 48 h): > 500 µg/mL; MIC ([3]; Escherichia coli, ATCC25922, read-out: MIC): 1 to 4 µg/mL (≈ 2.06 to 8.26 µM)
Clc1ccccc1C(c1ccccc1)(c1ccccc1)n1ccnc1 [chlotrimazole] | – | – | – | 0.24 mg/L | 0.49 mg/L | 3.91 µg/mL | 0.37 | 0.13 | 0.19 | – | – | MIC alone [6, 8]: 3.91 µg/mL; MIC alone [6, 9]: 7.81 µg/mL; MIC K408 with azole [6, 8]: 3.91 µg/mL; MIC K408 with azole [6, 9]: 1.95 µg/mL; MIC K4608 with azole ([6]; MIC of K4608 when combined with the labelled azole, one experiment): 1.95 µg/mL
OC(Cn1cncn1)(Cn1cncn1)c1ccc(F)cc1F [fluconazole] | – | – | – | 15.63, 15.63 mg L^−1 | 15.63, 15.63 mg L^−1 | 31.25 µg/mL | 0.31, 0.31 | 0.31, 0.31 | 0.25 | 250 µg/mL | 250 µg/mL | MIC [6, 12]: > 250 µg/mL
CCC(C)n1ncn(-c2ccc(N3CCN(c4ccc(OCC5COC(Cn6cncn6)(c6ccc(Cl)cc6Cl)O5)cc4)CC3)cc2)c1=O (stereo not drawn) [itraconazole] | – | – | – | 0.98, 0.98 mg L^−1 | 0.98, 0.98 mg L^−1 | 3.91 µg/mL | 0.25, 0.25 | 0.25, 0.25 | <0.52 | 250 µg/mL | 250 µg/mL | MIC [6, 12]: > 250 µg/mL
CC[C@@H]([C@H](C)O)n1ncn(-c2ccc(N3CCN(c4ccc(OC[C@@H]5CO[C@@](Cn6cncn6)(c6ccc(F)cc6F)C5)cc4)CC3)cc2)c1=O [posaconazole] | – | – | – | 0.24, 0.24 mg L^−1 | 0.24, 0.24 mg L^−1 | 0.49 µg/mL | 0.38 | 0.07 | <0.13 | 62.5 µg/mL | 250 µg/mL | –
C[C@@H](c1ncncc1F)[C@](O)(Cn1cncn1)c1ccc(F)cc1F [voriconazole] | – | – | – | 1.95 mg/L | 0.81 mg/L | 0.98 µg/mL | 0.38, 0.38 | 0.38, 0.38 | 0.19 | 7.81 µg/mL | 7.81 µg/mL | MIC [6, 12]: 7.81 µg/mL
